From patent US7109193B2, “Tricyclic diazepines tocolytic oxytocin receptor antagonists” (Wyeth, priority 2001, dated 2006)
pIC50: −log10 of the molar value.

Each molecule was assayed against T1, human vasopressin V2 receptor subtype (Homo sapiens, UniProt P30518) (assay: Vasopressin binding in Chinese Hamster Ovary cell membranes expressing human vasopressin V2 subtype receptors). Settings: 100 nM, CHO cell membranes, [3H]arginine vasopressin, values without parentheses.
T1 construct: host or cells: CHO cells (pZeoSV vector)
How it was run: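 Radioligand displacement on membranes from CHO cells stably expressing human V2 receptor, 25 to 50 μg protein/well, in 50 mM Tris-HCl pH 7.4 with MgCl2, BSA and protease inhibitors. [^3H]arginine vasopressin (8 nM working solution) incubated 60 min at room temperature; bound label measured by filtration and scintillation counting.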

T1 sequence (P30518 whole entry): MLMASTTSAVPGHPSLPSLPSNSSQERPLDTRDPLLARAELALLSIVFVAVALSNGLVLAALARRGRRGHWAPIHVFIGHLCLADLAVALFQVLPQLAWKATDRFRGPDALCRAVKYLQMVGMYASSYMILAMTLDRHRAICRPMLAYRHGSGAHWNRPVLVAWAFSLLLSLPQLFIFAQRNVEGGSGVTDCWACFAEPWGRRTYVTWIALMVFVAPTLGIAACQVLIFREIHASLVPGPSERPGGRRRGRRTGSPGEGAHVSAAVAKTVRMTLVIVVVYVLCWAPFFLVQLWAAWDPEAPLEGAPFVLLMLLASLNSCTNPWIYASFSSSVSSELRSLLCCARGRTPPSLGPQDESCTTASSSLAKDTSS

| Compound | inhibition at 0.1 µM [%] |
| --- | --- |
| COc1cc(C(=O)N2Cc3ccc(C(=O)N(C)CCCN(C)C)n3Cc3ccccc32)ccc1-c1cccc2ccccc12 [Example 106, N-[3-(Dimethylamino)propyl]-10-[3-methoxy-4-(1-naphthyl)benzoyl]-N-methyl-10,11-dihydro-5H-pyrrolo[2,1-c][1,4]benzodiazepine-3-carboxamide] | 34 |

Same assay, conditions: CHO cell membranes, [3H]arginine vasopressin, values in parentheses

| Compound | pIC50 |
| --- | --- |
| COc1cc(-c2ccccc2C)c(Cl)cc1C(=O)N1Cc2ccc(C(=O)N3CCC(N4CCCCC4)CC3)n2Cc2ccccc21 [Example 110, {10-[(6-Chloro-3-methoxy-2′-methyl[1,1′-biphenyl]-4-yl)carbonyl]-10,11-dihydro-5H-pyrrolo[2,1-c][1,4]benzodiazepin-3-yl}[4-(1-piperidinyl)-1-piperidinyl]methanone] | 6.10 |
| COc1ccccc1-c1ccc(C(=O)N2Cc3ccc(C(=O)N4CCC(N5CCCCC5)CC4)n3Cc3ccccc32)cc1 [Example 111, {10-[(2′-Methoxy[1,1′-biphenyl]-4-yl)carbonyl]-10,11-dihydro-5H-pyrrolo[2,1-c][1,4]benzodiazepin-3-yl}[4-(1-piperidinyl)-1-piperidinyl]methanone] | 6.11 |
| COc1cc(-c2ccccc2C)c(Cl)cc1C(=O)N1Cc2ccc(C(=O)N3CCC(N4CCCC4)CC3)n2Cc2ccccc21 [Example 136, {10-[(6-Chloro-3-methoxy-2′-methyl[1,1′-biphenyl]-4-yl)carbonyl]-10,11-dihydro-5H-pyrrolo[2,1-c][1,4]benzodiazepin-3-yl}[4-(1-pyrrolidinyl)-1-piperidinyl]methanone] | 6.22 |
| COc1ccccc1-c1ccc(C(=O)N2Cc3ccc(C(=O)N4CCN(CCN(C)C)CC4)n3Cc3ccccc32)cc1C [Example 195, {4-[2-(Dimethylamino)ethyl]-1-piperazinyl}{10-[(2′-methoxy-2-methyl[1,1′-biphenyl]-4-yl)carbonyl]-10,11-dihydro-5H-pyrrolo[2,1-c][1,4]benzodiazepin-3-yl}methanone] | 6.53 |
| Cc1cc(C(=O)N2Cc3ccc(C(=O)N4CCN(CCN(C)C)CC4)n3Cc3ccccc32)ccc1-c1ccccc1C(F)(F)F [Example 196, {4-[2-(Dimethylamino)ethyl]-1-piperazinyl}(10-{[2-methyl-2′-(trifluoromethyl)[1,1′-biphenyl]-4-yl]carbonyl}-10,11-dihydro-5H-pyrrolo[2,1-c][1,4]benzodiazepin-3-yl)methanone] | 6.07 |
| COc1cc(-c2ccccc2C)c(Cl)cc1C(=O)N1Cc2ccc(C(=O)N3CCN(CCN(C)C)CC3)n2Cc2ccccc21 [Example 197, {10-[(6-Chloro-3-methoxy-2′-methyl[1,1′-biphenyl]-4-yl)carbonyl]-10,11-dihydro-5H-pyrrolo[2,1-c][1,4]benzodiazepin-3-yl}{4-[2-(dimethylamino)ethyl]-1-piperazinyl}methanone] | 6.30 |
| COc1ccccc1-c1ccc(C(=O)N2Cc3ccc(C(=O)N4CCN(CCN5CCOCC5)CC4)n3Cc3ccccc32)cc1C [Example 206, {10-[(2′-Methoxy-2-methyl[1,1′-biphenyl]-4-yl)carbonyl]-10,11-dihydro-5H-pyrrolo[2,1-c][1,4]benzodiazepin-3-yl}{4-[2-(4-morpholinyl)ethyl]-1-piperazinyl}methanone] | 6.72 |
| COc1ccccc1-c1ccc(C(=O)N2Cc3ccc(C(=O)N4CCN(CCN5CCOCC5)CC4)n3Cc3ccccc32)cc1 [Example 207, {10-[(2′-Methoxy[1,1′-biphenyl]-4-yl)carbonyl]-10,11-dihydro-5H-pyrrolo[2,1-c][1,4]benzodiazepin-3-yl}{4-[2-(4-morpholinyl)ethyl]-1-piperazinyl}methanone] | 6.22 |
| C=CCN1CCN(C(=O)c2ccc3n2Cc2ccccc2N(C(=O)c2cc(Cl)c(-c4ccccc4C)cc2OC)C3)CC1 [Example 219, (4-Allyl-1-piperazinyl){10-[(6-chloro-3-methoxy-2′-methyl[1,1′-biphenyl]-4-yl)carbonyl]-10,11-dihydro-5H-pyrrolo[2,1-c][1,4]benzodiazepin-3-yl}methanone] | 5.88 |
| C=CCN1CCN(C(=O)c2ccc3n2Cc2ccccc2N(C(=O)c2ccc(-c4ccccc4C)c(C)c2)C3)CC1 [Example 220, (4-Allyl-1-piperazinyl){10-[(2,2′-dimethyl[1,1′-biphenyl]-4-yl)carbonyl]-10,11-dihydro-5H -pyrrolo[2,1-c][1,4]benzodiazepin-3-yl}methanone] | 5.74 |
| C=CCN1CCN(C(=O)c2ccc3n2Cc2ccccc2N(C(=O)c2ccc(-c4ccccc4OC)cc2)C3)CC1 [Example 221, (4-Allyl-1-piperazinyl){10-[(2′-methoxy[1,1′-biphenyl]4-yl)carbonyl]-10,11-dihydro-5H -pyrrolo[2,1-c][1,4]benzodiazepin-3-yl}methanone] | 6.08 |
| COc1ccccc1-c1ccc(C(=O)N2Cc3ccc(C(=O)N4CCN(CCCN(C)C)CC4)n3Cc3ccccc32)cc1C [Example 245, {4-[3-(Dimethylamino)propyl]-1-piperazinyl}{10-[(2′-methoxy-2-methyl[1,1′-biphenyl]-4-yl)carbonyl]-10,11-dihydro-5H-pyrrolo[2,1-c][1,4]benzodiazepin-3-yl}methanone] | 6.37 |
| COc1ccccc1-c1ccc(C(=O)N2Cc3ccc(C(=O)N4CCN(CCCN(C)C)CC4)n3Cc3ccccc32)cc1 [Example 246, {4-[3-(Dimethylamino)propyl]-1-piperazinyl}{10-[(2′-methoxy[1,1′-biphenyl]-4-yl)carbonyl]-10,11-dihydro-5H-pyrrolo[2,1-c][1,4]benzodiazepin-3-yl}methanone] | 6.29 |
| Cc1cc(C(=O)N2Cc3ccc(C(=O)N4CCC[C@H]4CN4CCCC4)n3Cc3ccccc32)ccc1-c1ccccc1C(F)(F)F [Example 258, (10-{[2-Methyl-2′-(trifluoromethyl)[1,1′-biphenyl]-4-yl]carbonyl}-10,11-dihydro-5H-pyrrolo[2,1-c][1,4]benzodiazepin-3-yl)[(2S)-2-(1-pyrrolidinylmethyl)pyrrolidinyl]methanone] | 5.25 |
| COc1cccc(-c2ccc(C(=O)N3Cc4ccc(C(=O)N5CCC[C@H]5CN5CCCC5)n4Cc4ccccc43)cc2C)c1 [Example 263, {10-[(3′-Methoxy-2-methyl[1,1′-biphenyl]-4-yl)carbonyl]-10,11-dihydro-5H-pyrrolo[2,1-c][1,4]benzodiazepin-3-yl}[(2S)-2-(1-pyrrolidinylmethyl)pyrrolidinyl]methanone] | 5.38 |
| Cc1cc(C(=O)N2Cc3ccc(C(=O)N4CC[C@@H](N(C)C)C4)n3Cc3ccccc32)ccc1-c1ccccc1C(F)(F)F [Example 271, [(3R)-3-(Dimethylamino)pyrrolidinyl](10-{[2-methyl-2′-(trifluoromethyl)[1,1′-biphenyl]-4-yl]carbonyl}-10,11-dihydro-5H-pyrrolo[2,1-c][1,4]benzodiazepin-3-yl)methanone] | 5.72 |
| COc1ccccc1-c1ccc(C(=O)N2Cc3ccc(C(=O)N4CC[C@@H](N(C)C)C4)n3Cc3ccccc32)cc1C [Example 272, [(3R)-3-(Dimethylamino)pyrrolidinyl]{10-[(2′-methoxy-2-methyl[1,1′-biphenyl]-4-yl)carbonyl]-10,11-dihydro-5H-pyrrolo[2,1-c][1,4]benzodiazepin-3-yl}methanone] | 5.89 |
| COc1cc(-c2ccccc2C)c(Cl)cc1C(=O)N1Cc2ccc(C(=O)N3CC[C@@H](N(C)C)C3)n2Cc2ccccc21 [Example 273, {10-[(6-Chloro-3-methoxy-2′-methyl[1,1′-biphenyl]-4-yl)carbonyl]-10,11-dihydro-5H-pyrrolo[2,1-c][1,4]benzodiazepin-3-yl}[(3R)-3-(dimethylamino)pyrrolidinyl]methanone] | 6.09 |
| COc1cccc(-c2ccc(C(=O)N3Cc4ccc(C(=O)N5CC[C@@H](N(C)C)C5)n4Cc4ccccc43)cc2C)c1 [Example 278, [(3R)-3-(Dimethylamino)pyrrolidinyl]{10-[(3′-methoxy-2-methyl[1,1′-biphenyl]-4-yl)carbonyl]-10,11-dihydro-5H-pyrrolo[2,1-c][1,4]benzodiazepin-3-yl}methanone] | 5.77 |
